Tests used:
A2780 cells = experiment: Cell Viability Assay (ATPlite 1step), A2780; assay type: cell-based; conditions: Homo sapiens, 72 hours; for percent inhibition of cell viability at 4 µM: A2780, 4 uM compound, read-out: Cell Viability % inhibition A2780 (4 uM Cpd); for percent inhibition of cell viability at 20 µM: A2780, 20 uM compound, read-out: Cell Viability % inhibition A2780 (20 uM Cpd)
Protocol: (§1) Cell Viability Assay Protocol
(§2) Cells were trypsinized, counted, and re-seeded into a 384-well tissue culture plate at 1000 cells per well in […] media. Cells were incubated at 37° C. in an atmosphere of 5% CO2 for 24 hours. Experimental compounds, initially dissolved in DMSO and diluted further in media were added to the wells and incubated for 72 hours. Cell viability was measured using the ATPlite 1step Luminescence Detection Assay system (Perkin Elmer) as described in the Assay kit instructions.
(§3) Cell Culture Lines and Media: (1) A2780 cells were cultured in RPMI media with 10% FBS and 1% antibiotics. Cells were typically split every 3-5 days at a 1:10 dilution; (2) PC3 cells were cultured in RPMI media with 10% FBS and 1% antibiotics. Cells were typically split every 3-5 days at a 1:4 dilution; (3) MCF-7 cells were grown in K-12F media with 10% FBS and 1% antibiotics. Cells were typically split every 3-5 days at a 1:10 dilution.

PC3 cells = experiment: Cell Viability Assay (ATPlite 1step), PC3; assay type: cell-based; conditions: Homo sapiens, PC-3, 72 hours; for percent inhibition of cell viability at 4 µM: PC3, 4 uM compound, read-out: Cell Viability % inhibition PC3 (4 uM Cpd); for percent inhibition of cell viability at 20 µM: PC3, 20 uM compound, read-out: Cell Viability % inhibition PC3 (20 uM Cpd)
Protocol: as §1, §2, §3

Structure (SMILES) | percent inhibition of cell viability at 4 µM (A2780 cells) [%] | percent inhibition of cell viability at 20 µM (A2780 cells) [%] | percent inhibition of cell viability at 4 µM (PC3 cells) [%] | percent inhibition of cell viability at 20 µM (PC3 cells) [%]
NCCNc1ncc(C(=O)Nc2ccc(-c3cccc(C4CC4)c3)cn2)cn1 [Compound 56, 2-[(2-aminoethyl)amino]-N-[5-(3-cyclopropylphenyl)pyridin-2-yl]pyrimidine-5-carboxamide] | 88 | 97.6 | 81.4 | 97.4
CN1CCN(c2cccc(-c3ccc(NC(=O)c4cncnc4)nc3)c2)CC1 [Compound 34, N-{5-[3-(4-methylpiperazin-1-yl)phenyl]pyridin-2-yl}pyrimidine-5-carboxamide] | 51.6 | 49.4 | 19.8 | 30.3
O=C(Nc1ccc(-c2cccc(-c3ccccc3)c2)cn1)c1cncnc1 [Compound 40, N-[5-(biphenyl-3-yl)pyridin-2-yl]pyrimidine-5-carboxamide] | 61 | 72 | 48.3 | 52.5
Cc1ncc(C(=O)Nc2ccc(-c3cccc(N4CCN(C)CC4)c3)cn2)cn1 [Compound 35, N-{5-[3-(4-methylpiperazin-1-yl)phenyl]pyridin-2-yl}-2-methylpyrimidine-5-carboxamide] | 54.6 | 75.9 | 39.6 | 58.8
O=C(Nc1ccc(-c2ccc(Cl)cc2)cn1)c1cncnc1 [Compound 2, N-[5-(4-chlorophenyl)pyridin-2-yl]pyrimidine-5-carboxamide] | 19.5 | 65.2 | 4.9 | 17.4
O=C(Nc1ccc(-c2cccc(NC3CC3)c2)cn1)c1cncnc1 [Compound 30, N-{5-[3-(cyclopropylamino)phenyl]pyridin-2-yl}pyrimidine-5-carboxamide] | 77.4 | 78.7 | 63.4 | 71.9
Cc1ncc(C(=O)Nc2ccc(-c3cccc(OCCN4CCN(C)CC4)c3)cn2)cn1 [Compound 38, N-{-5-[3-(2-(4-methylpiperazin-1-yl)ethoxy)phenyl]pyridin-2-yl}-2-methylpyrimidine-5-carboxamide] | 51.7 | 68.7 | 39.9 | 61.2
O=C(Nc1ccc(-c2ccccc2Cl)cn1)c1cncnc1 [Compound 4, N-[5-(2-chlorophenyl)pyridin-2-yl]pyrimidine-5-carboxamide] | 79.7 | 87.5 | 36 | 44.2
O=C(Nc1ccc(-c2cccc(OC3CC3)c2)cn1)c1cncnc1 [Compound 26, N-{5-[3-(cyclopropyloxy)phenyl]pyridin-2-yl}pyrimidine-5-carboxamide] | 76 | 79.9 | 59.3 | 67.5
COc1ncc(C(=O)Nc2ccc(-c3cccc(OC4CC4)c3)cn2)cn1 [Compound 57, N-{5-[3-(cyclopropyloxy)phenyl]pyridin-2-yl}-2-methoxypyrimidine-5-carboxamide] | 88.3 | 89.8 | 85.1 | 89
O=C(Nc1ccc(-c2cccc(C3CC3)c2)cn1)c1cnccc1F [Compound 39, N-[5-(3-cyclopropylphenyl)pyridin-2-yl]-4-fluoropyridine-3-carbox-amide] | 55.6 | 58.7 | 19.2 | 28.7
O=C(Nc1ccc(-c2cccc(C3COC3)c2)cn1)c1cncnc1 [Compound 41, N-{5-[3-(oxetan-3-yl)phenyl]pyridin-2-yl}pyrimidine-5-carboxamide] | 74.7 | 88.9 | 74.5 | 80.9
Cc1ncc(C(=O)Nc2ccc(-c3cccc(C4COC4)c3)cn2)cn1 [Compound 42, 2-methyl-N-{5-[3-(oxetan-3-yl)phenyl]pyridin-2-yl}pyrimidine-5-carboxamide] | 85 | 85.2 | 80.3 | 84.5
COc1ncc(C(=O)Nc2ccc(-c3cccc(C4CC4)c3)cn2)cn1 [Compound 59, N-[5-(3-cyclopropylphenyl)pyridin-2-yl]-2-methoxypyrimidine-5-carboxamide] | 87.8 | 90.4 | 82.6 | 88.5
COc1ccc(-c2ccc(NC(=O)c3cncnc3)nc2)cc1Cl [Compound 22, N-[5-(3-chloro-4-methoxyphenyl)pyridin-2-yl]pyrimidine-5-carboxamide] | 69 | 67.9 | 20.7 | 11.5
COc1ccc(Cl)cc1-c1ccc(NC(=O)c2cncnc2)nc1 [Compound 21, N-[5-(5-chloro-2-methoxyphenyl)pyridin-2-yl]pyrimidine-5-carboxamide] | 70.4 | 62.4 | 22.8 | 15.3
Cc1ncc(C(=O)Nc2ccc(-c3cccc(NC4CCNC4)c3)cn2)cn1 (centres unmarked) [Compound 55, 2-methyl-N-{5-[3-(pyrrolidin-3-ylamino)phenyl]pyridin-2-yl}pyrimidine-5-carboxamide] | 80.3 | 87.4 | 81.1 | 82.2
Cc1ccc(C(=O)Nc2ccc(-c3cccc(NC4CC4)c3)cn2)cn1 [Compound 33, N-{5-[3-(cyclopropylamino)phenyl]pyridin-2-yl}-6-methylpyridine-3-carboxamide] | 69.5 | 74.8 | 56.1 | 54.9
O=C(Nc1ccc(-c2cccc(C3CC3)c2)cn1)c1cnc(O)nc1 [Compound 60, N-[5-(3-cyclopropylphenyl)pyridin-2-yl]-2-hydroxypyrimidine-5-carboxamide] | 77.1 | 83.7 | 48.8 | 80.6
Cc1ccc(C(=O)Nc2ccc(-c3cccc(N4CCN(C)CC4)c3)cn2)cn1 [Compound 37, N-{5-[3-(4-methylpiperazin-1-yl)phenyl]pyridin-2-yl}-6-methylpyridine-3-carboxamide] | 59.2 | 70.8 | 35.4 | 61

Reference: patent publication US12383533B2 (Frost Biologic, Inc., priority 2014, dated 2025)
